Assay results reported in PubChem BioAssay (NCI).
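Exposure lasted 48 hours, with cells grown in 96-well plates and compounds tested at five concentrations. At the GI50, growth is halved. Definition used: TGI = concentration required for complete inhibition of growth.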

Experiments:
Test in all cases: NCI anticancer screen, dose series, 48 h
[1] = system: SK-MEL-28 melanoma
[2] = system: NCI-H522 lung
[3] = system: CCRF-CEM leukemia
[4] = system: MALME-3M melanoma
[5] = system: A549 NSCLC
[6] = system: TK-10 renal
[7] = system: NCI-H460 lung
[8] = system: NCI/ADR-RES ovarian
[9] = system: MDA-MB-435
[10] = system: BT-549 breast

Row | SMILES | TGI [1] [µM] | TGI [2] [µM] | TGI [3] [µM] | TGI [4] [µM] | TGI [5] [µM] | TGI [6] [µM] | TGI [7] [µM] | GI50 [1] [µM] | GI50 [2] [µM] | GI50 [8] [µM] | TGI [8] [µM] | GI50 [9] [µM] | TGI [9] [µM] | GI50 [4] [µM] | GI50 [10] [µM] | TGI [10] [µM] | GI50 [5] [µM] | GI50 [6] [µM] | GI50 [7] [µM] | GI50 [3] [µM]
1 | CC1=C(C(=O)CC(=O)C(=O)NC2C3CC4CC(C3)CC2C4)Sc2ccccc2N1 (configuration not stated) | > 100 | > 100 | > 87.7 | > 100 | > 100 | > 100 | > 100 |  |  |  |  |  |  |  |  |  |  |  |  | 
2 | Cc1ccccc1NC(=O)C(=O)CC(=O)c1ccc([N+](=O)[O-])cc1 | > 100 |  |  | > 100 | > 100 | > 100 | > 100 |  |  |  |  |  |  |  |  |  |  |  |  | 
3 | CCOC(=O)C[C@@]12CCCNC1(C)CCc1ccccc12 (some centres not stated) |  |  | > 100 | > 100 | > 100 | > 100 | > 100 |  |  |  |  |  |  |  |  |  |  |  |  | 
4 | O=C(Nc1cc(S(=O)(=O)c2ccc(Cl)cc2)ccc1Cl)c1cc(I)cc(I)c1O | 24.6 | 26.6 |  | 48.5 | 38.2 | 34.2 | 38.5 | 9.38 | 11.8 | 18.7 | 44.6 | 17.4 | 37.8 | 21.1 | 19.9 | 39.8 | 19.3 | 18.1 | 15.2 | 
5 | C/C(=N/O)c1ccc2c(c1)C(=NO)c1cc(/C(C)=N/O)ccc1-2 | 31.7 | 53.3 |  | 23 | 68.6 |  | 31.8 |  |  |  |  |  |  |  |  |  |  |  |  | 
6 | O=C1C(c2ccccc2)=C(c2ccccc2)[C@H](c2ccccc2)[C@]1(Cc1nnn(-c2ccc([N+](=O)[O-])cc2)c1N1CCOCC1)c1ccccc1 | > 37.5 |  | > 37.5 |  | > 37.5 | > 37.5 | > 37.5 |  |  |  |  |  |  |  |  |  |  |  |  | 
7 | Cc1cc([N+](=O)[O-])c(S(=O)(=O)c2ccccc2)c([N+](=O)[O-])c1 | 40.9 | 3.14 | > 28 | 27.9 | 41.3 | 32.4 | 28.2 |  |  |  |  |  |  |  |  |  |  |  |  | 
8 | CC(=O)[CH-]C(=O)c1ccccc1.CC(=O)[CH-]C(=O)c1ccccc1.[CH2-]CCC.[CH2-]CCC.[Sn+4] |  | 0.327 | 0.745 | 1.91 | 4.13 | 2.31 | 4.62 |  | 0.157 |  |  |  |  | 0.63 |  |  | 1.93 | 1.06 | 2.11 | 0.261
9 | COc1cc(O)c(C(C)=O)c(O)c1 | > 100 | > 100 |  | > 100 | > 100 | > 100 | > 100 |  |  |  | > 100 |  | > 100 |  |  |  |  |  |  | 
10 | COc1ccc(CC2=NCCc3cc(OC)c(OC)cc32)cc1Br | > 100 | 86.6 | > 100 | 70.4 | > 100 | > 100 | > 100 |  |  |  |  |  |  |  |  |  |  |  |  | 
11 | COC(=O)c1cc2c3c(ccc2[nH]1)N(C(=O)c1cc2c4c(ccc2[nH]1)N(C(=O)c1cc2c5c(ccc2[nH]1)N(C(N)=O)CC5)CC4)CC3 | > 100 |  | > 51.2 | > 24.2 | > 100 | 47 | > 100 |  |  |  |  |  |  |  |  |  |  |  |  | 
12 | C/C(=N/NC(=O)CC(=O)N(C(=O)c1ccccc1Cl)c1ccc(C)cc1)c1cc2ccccc2oc1=O | > 100 | > 100 | > 100 | > 100 | > 100 | > 100 | > 100 |  |  |  |  |  |  |  |  |  |  |  |  | 
